The test has as its system histamine H2 -receptors. Description: inhibition of histamine-stimulated secretion of gastric acid from the lumen-perfused stomachs of rats anaesthetised with urethane. In kind it is in vivo. The following applies: i.v., lumen-perfused stomach of urethane-anaesthetised rats.

As for `N=C(N)Nc1nc(CSCCNc2[nH]ccc2[N+](=O)[O-])cs1` [Example 1, 2-[2-(2-Guanidino-4-thiazolylmethylthio)ethylamino]-3-nitropyrrole], the “dose causing 50% inhibition of maximal acid secretion” value is recorded as “less than 0.1 micromole kg^-1”.

Source of the values: patent publication US4359466A, “Guanidine compounds” (Smith Kline & French Laboratories Limited, priority 1980, dated 1982).
